In patent publication US20200131249A1, “NOVEL PROTEINS AND USE THEREOF” (EVOLVERITAS KFT., priority 2017, published 2020):
Where no end group is shown, it is not given here.

Assays:
extrinsic pathway = assay: Prothrombin time (PT) in human plasma
Description: (§1) Blood coagulation measurements using blood plasma taken from healthy human individuals were also performed. From the blood obtained through venipuncture and treated with sodium citrate (3.8% wt/vol) the plasma was isolated by centrifugation (2,000 g, 15 minutes, Jouan CR412 centrifuge).
(§2) The effect of the protein variants of the present invention on the blood coagulation process was tested in three standard assays, the thrombin time, testing any direct effects on thrombin; prothrombin time, testing any effects on the extrinsic pathway; and the activated partial thromboplastin time, testing any effects on the intrinsic pathway. Blood was collected from a healthy individual by vein puncture after informed consent. The blood was treated with sodium-citrate (3.8% w/v) and centrifuged. All three assays were performed on the automated instrument Sysmex CA-1500 (Sysmex) with Innovin reagent (Dale Behring, Marburg, Germany).
(§3) The inhibitors were applied in a fivefold serial dilution with the highest final concentration being 36 μM. This value is 3-4 orders of magnitudes higher than the KI values of the three protein variants of the present invention on human MASP-2. Even at the highest concentration the protein variants of the present invention have only little effect in the APTT test and no effect in the PT and TT tests.

thrombin = assay: Thrombin time (TT) in human plasma
Description: as §1, §2, §3

intrinsic pathway = assay: Activated partial thromboplastin time (APTT) in human plasma
Description: as §1, §2, §3

human MASP-3 = target: T1, human MASP-3 (Homo sapiens, UniProt P48740); conditions: Data from Héja et al. 2012a; cited from earlier work
T1 construct: catalytic enzyme fragments containing the three C-terminal domains: CCP1-CCP2-SP
T1 sequence (P48740 450-728 isoform P48740-2 limits assumed): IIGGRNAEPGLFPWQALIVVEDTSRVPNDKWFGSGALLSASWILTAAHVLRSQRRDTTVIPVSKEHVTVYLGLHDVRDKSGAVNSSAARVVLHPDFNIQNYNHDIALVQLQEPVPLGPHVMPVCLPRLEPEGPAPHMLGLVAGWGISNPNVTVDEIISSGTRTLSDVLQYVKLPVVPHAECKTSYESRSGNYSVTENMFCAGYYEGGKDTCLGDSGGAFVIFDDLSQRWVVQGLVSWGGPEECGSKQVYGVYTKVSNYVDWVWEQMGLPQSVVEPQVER

MASP-2 = MASP-2 (Homo sapiens, UniProt O00187); design: catalytic enzyme fragments containing the three C-terminal domains: CCP1-CCP2-SP; made in house; inclusion bodies, renatured; conditions: Data from Héja et al. 2012b; cited from earlier work
Chain of MASP-2 (O00187 445-686 limits assumed): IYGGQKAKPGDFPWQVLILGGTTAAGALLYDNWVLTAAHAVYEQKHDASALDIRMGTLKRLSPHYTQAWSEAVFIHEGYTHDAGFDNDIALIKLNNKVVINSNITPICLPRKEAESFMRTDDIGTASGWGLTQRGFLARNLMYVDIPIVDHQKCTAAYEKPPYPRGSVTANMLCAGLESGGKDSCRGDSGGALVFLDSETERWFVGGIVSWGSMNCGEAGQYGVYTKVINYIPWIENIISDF
Chain of MASP-2 (O00187 287-444 partner limits assumed): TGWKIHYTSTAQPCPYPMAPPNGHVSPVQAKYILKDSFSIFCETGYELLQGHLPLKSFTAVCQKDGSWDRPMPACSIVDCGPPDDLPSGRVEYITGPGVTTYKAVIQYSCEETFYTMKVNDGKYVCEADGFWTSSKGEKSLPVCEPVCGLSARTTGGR

| Substance | PT (extrinsic pathway; inhibitor 0.1 μM) [s] | PT (extrinsic pathway; inhibitor 0.3 μM) [s] | PT (extrinsic pathway; inhibitor 1.4 μM) [s] | PT (extrinsic pathway; inhibitor 7.2 μM) [s] | PT (extrinsic pathway; inhibitor 36.0 μM) [s] | TT (thrombin; inhibitor 0.1 μM) [s] | TT (thrombin; inhibitor 0.3 μM) [s] | TT (thrombin; inhibitor 1.4 μM) [s] | TT (thrombin; inhibitor 7.2 μM) [s] | TT (thrombin; inhibitor 36.0 μM) [s] | APTT (intrinsic pathway; inhibitor 0.1 μM) [s] | APTT (intrinsic pathway; inhibitor 0.3 μM) [s] | APTT (intrinsic pathway; inhibitor 1.4 μM) [s] | APTT (intrinsic pathway; inhibitor 7.2 μM) [s] | APTT (intrinsic pathway; inhibitor 36.0 μM) [s] | Ki (human MASP-3) [µM] | Ki (MASP-2) [µM] |
| --- | --- | --- | --- | --- | --- | --- | --- | --- | --- | --- | --- | --- | --- | --- | --- | --- | --- |
| SEQ ID NO: 14: TFPI-D2 variant protein with inhibitor loop PCRAVKR (SEQ ID NO: 4) (KPDFCFLEEDPGPCRAVKRRYFYNNQTKQCERFKYGGCLGNMNNFETLEECKNICEDG; ends and bridges not checked; cysteine pairing not given here) | 10.8 | 10.7 | 10.8 | 10.9 | 11.3 | 16.5 | 16.6 | 16.7 | 16.2 | 15.5 | 36.1 | 36.8 | 37.9 | 40.2 | 46.4 | – | – |
| SGMI-2 (GSGEVTCEPGTTFKDKCNTCRCGSDGKSAVCTKLWCNQ; Synthetic protein of insect origin) [reference compound] | – | – | – | – | – | – | – | – | – | – | – | – | – | – | – | ~5 | 0.006 |
